± gives the expanded uncertainty stated by the source.
Settings: 298.15 K; 101.33 kPa; Liquid; Vibrating tube method

Q: For `CCC(C)(C)N` [1,1-dimethylpropylamine], which molar volume is on record?
A: 0.0001192 ± 1.3e-07 m3/mol

Q: With `CCCCCCCCCCN` [1-decanamine] as the compound, how does the molar volume read?
A: 0.000199 ± 2e-07 m3/mol

Q: For `CCC(C)N` (stereo not drawn) [2-butanamine], which molar volume is on record?
A: 0.0001019 ± 1.1e-07 m3/mol

Q: Which molar volume does the source give for `CC(C)CCN` [3-methyl-1-butanamine] here?
A: 0.000117 ± 1.1e-07 m3/mol

Q: Which molar volume does the source give for `CCCCCCN` [1-hexanamine] here?
A: 0.0001331 ± 1.1e-07 m3/mol

Q: With `CCCCCN` [1-pentanamine] as the compound, how does the molar volume read?
A: 0.0001163 ± 1.1e-07 m3/mol

Q: For `CCCCCCCCCN` [1-aminononane], which molar volume is on record?
A: 0.0001829 ± 1.8e-07 m3/mol

Q: With `CC(C)N` [2-propanamine] as the compound, how does the molar volume read?
A: 8.672e-05 ± 1e-07 m3/mol

Q: With `CCC(N)CC` [1-ethylpropylamine] as the compound, how does the molar volume read?
A: 0.0001172 ± 2.4e-07 m3/mol

Q: Which molar volume does the source give for `CCCCCCCCCCCCN` [1-dodecanamine] here?
A: 0.0002323 ± 2e-07 m3/mol

Q: With `CCCCCCCCCCCCCCN` [1-tetradecanamine] as the compound, how does the molar volume read?
A: 0.0002655 ± 1e-07 m3/mol

Q: Which molar volume does the source give for `CCCN` [propan-1-amine] here?
A: 8.315e-05 ± 1e-07 m3/mol

Q: Which molar volume does the source give for `CCCCCCCN` [1-heptanamine] here?
A: 0.0001496 ± 1.1e-07 m3/mol

Q: With `CC(C)CN` [2-methyl-1-propanamine] as the compound, how does the molar volume read?
A: 0.000101 ± 1e-07 m3/mol

Q: Which molar volume does the source give for `CCCCCCC` [heptane] here?
A: 0.0001475 ± 1.1e-07 m3/mol

Q: For `CCCCN` [1-butanamine], which molar volume is on record?
A: 9.987e-05 ± 1e-07 m3/mol

Q: For `CCCCCCCCN` [1-octanamine], which molar volume is on record?
A: 0.0001662 ± 1.1e-07 m3/mol

Q: Which molar volume does the source give for `CC(C)(C)N` [2-methyl-2-propanamine] here?
A: 0.0001065 ± 1e-07 m3/mol

Reference: the NIST ThermoML archive (doi:10.1016/j.jct.2010.12.025)
